In ChEMBL document CHEMBL5352444, “Development of benzene and benzothiazole-sulfonamide analogues as selective inhibitors of the tumor-associated carbonic anhydrase IX” (Eur J Med Chem, 2022):

Legend:
[1] = molecular target: Carbonic anhydrase 4 (Homo sapiens, UniProt P22748); test: Inhibition of human carbonic anhydrase 4 assessed as inhibition constant preincubated for 15 mins and measured for 10 to 100 sec by phenol red dye based stopped flow CO2 hydration assay
[2] = molecular target: Carbonic anhydrase 9 (Homo sapiens, UniProt Q16790); test: Inhibition of human carbonic anhydrase 9 assessed as inhibition constant incubated for 15 mins by phenol red dye based stopped flow CO2 hydration assay
[3] = molecular target: Carbonic anhydrase 1 (Homo sapiens, UniProt P00915); test: Inhibition of human carbonic anhydrase 1 assessed as inhibition constant preincubated for 15 mins and measured for 10 to 100 sec by phenol red dye based stopped flow CO2 hydration assay
Chain of Carbonic anhydrase 1 (P00915 whole entry): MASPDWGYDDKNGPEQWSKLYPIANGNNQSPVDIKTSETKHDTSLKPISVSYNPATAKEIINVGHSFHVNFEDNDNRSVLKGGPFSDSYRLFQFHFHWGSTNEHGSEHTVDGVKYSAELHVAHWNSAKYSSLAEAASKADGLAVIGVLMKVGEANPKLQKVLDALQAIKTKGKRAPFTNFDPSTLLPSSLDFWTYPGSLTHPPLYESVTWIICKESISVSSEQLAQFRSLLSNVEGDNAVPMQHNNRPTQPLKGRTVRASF

[4] = molecular target: Carbonic anhydrase 2 (Homo sapiens, UniProt P00918); test: Inhibition of human carbonic anhydrase 2 assessed as inhibition constant preincubated for 15 mins and measured for 10 to 100 sec by phenol red dye based stopped flow CO2 hydration assay
[5] = Cytotoxicity against HGF cells assessed as increase in cell viability at 50 uM incubated for 48 hrs by MTT assay relative to doxorubicin; type: toxicity, cell-based; settings: human
[6] = Cytotoxicity against HGF cells assessed as increase in cell viability at 10 uM incubated for 48 hrs by MTT assay relative to doxorubicin; type: toxicity, cell-based; settings: human
[7] = Cytotoxicity against HGF cells assessed as increase in cell viability at 50 uM incubated for 72 hrs by MTT assay relative to control; type: toxicity, cell-based; settings: human
[8] = Cytotoxicity against HGF cells assessed as cell viability at 50 uM incubated for 72 hrs by MTT assay relative to control; type: toxicity, cell-based; settings: human, read-out: Activity
[9] = Cytotoxicity against HGF cells assessed as increase in cell viability at 10 uM incubated for 72 hrs by MTT assay relative to control; type: toxicity, cell-based; settings: human
[10] = Cytotoxicity against HGF cells assessed as increase in cell viability at 10 uM incubated for 72 hrs by MTT assay relative to doxorubicin; type: toxicity, cell-based; settings: human
[11] = Cytotoxicity against HGF cells assessed as increase in cell viability at 50 uM incubated for 48 hrs by MTT assay relative to control; type: toxicity, cell-based; settings: human
[12] = Cytotoxicity against HGF cells assessed as increase in cell viability at 10 uM incubated for 48 hrs by MTT assay relative to control; type: toxicity, cell-based; settings: human

Chain of Carbonic anhydrase 4 (P22748 whole entry): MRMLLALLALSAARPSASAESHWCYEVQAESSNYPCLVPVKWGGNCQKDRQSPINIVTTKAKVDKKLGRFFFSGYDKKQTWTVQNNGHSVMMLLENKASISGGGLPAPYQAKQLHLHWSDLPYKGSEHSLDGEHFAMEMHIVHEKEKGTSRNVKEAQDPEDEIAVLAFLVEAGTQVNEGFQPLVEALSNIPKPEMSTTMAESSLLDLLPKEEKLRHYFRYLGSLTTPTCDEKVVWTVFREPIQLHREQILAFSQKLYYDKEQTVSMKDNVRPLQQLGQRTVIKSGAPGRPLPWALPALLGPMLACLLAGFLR

SMILES	Ki [1] [nM]	Ki [2] [nM]	Ki [3] [nM]	Ki [4] [nM]	Activity [5]	Activity [6]	Activity [7]	viability at 72 h, 50 µM [8] [%]	Activity [9]	Activity [10]	Activity [11]	Activity [12]
CN1CCN(C(=S)SCC(=O)Nc2ccc(S(N)(=O)=O)cc2)CC1	420	255	–	–	–	–	–	–	–	–	–	–
COc1ccccc1N1CCN(C(=S)SCC(=O)Nc2nc3ccc(S(N)(=O)=O)cc3s2)CC1	7260	30.3	5030	51.5	Non-Toxic	Non-Toxic	Toxic	> 60	Toxic	Non-Toxic	–	–
CCN1CCN(C(=S)SCC(=O)Nc2nc3ccc(S(N)(=O)=O)cc3s2)CC1	5930	28.8	56.1	2.5	–	–	–	–	–	–	–	–
Cc1ccc(N2CCN(C(=S)SCC(=O)Nc3ccc(S(N)(=O)=O)cc3)CC2)cc1	2310	1250	2010	371	–	–	–	–	–	–	–	–
NS(=O)(=O)c1ccc(NC(=O)CSC(=S)N2CCN(c3ccccc3)CC2)cc1	1470	744	707	240	–	–	–	–	–	–	–	–
CCOC(=O)N1CCN(C(=S)SCC(=O)Nc2ccc(S(N)(=O)=O)cc2)CC1	779	136	54.8	5.7	–	–	–	–	–	–	–	–
CN1CCN(C(=S)SCC(=O)Nc2nc3ccc(S(N)(=O)=O)cc3s2)CC1	5090	30.6	20.8	4.1	–	–	–	–	–	–	–	–
NS(=O)(=O)c1ccc2nc(NC(=O)CSC(=S)N3CCN(Cc4ccccc4)CC3)sc2c1	5540	25.9	599	297	Non-Toxic	Non-Toxic	Toxic	> 60	Toxic	Non-Toxic	–	–
NS(=O)(=O)c1ccc2nc(NC(=O)CSC(=S)N3CCN(C(c4ccccc4)c4ccccc4)CC3)sc2c1	7640	157	9150	965	–	–	–	–	–	–	–	–
NS(=O)(=O)c1ccc(NC(=O)CSC(=S)N2CCN(C(c3ccccc3)c3ccccc3)CC2)cc1	8450	154	1810	441	–	–	–	–	–	–	–	–
NS(=O)(=O)c1ccc(NC(=O)CSC(=S)N2CCOCC2)cc1	649	162	72.8	7.2	–	–	–	–	–	–	–	–
NS(=O)(=O)c1ccc2nc(NC(=O)CSC(=S)N3CCCCC3)sc2c1	7440	26.6	85.6	3.8	–	–	–	–	–	–	–	–
NS(=O)(=O)c1ccc(NC(=O)CSC(=S)N2CCN(Cc3ccccc3)CC2)cc1	3400	31.6	84.1	17.4	–	–	–	–	–	–	–	–
NS(=O)(=O)c1ccc2nc(NC(=O)CSC(=S)N3CCN(c4ccccc4)CC3)sc2c1	> 10000	115	4190	91.4	–	–	–	–	–	–	–	–
CCOC(=O)N1CCN(C(=S)SCC(=O)Nc2nc3ccc(S(N)(=O)=O)cc3s2)CC1	> 10000	22.1	7570	50.3	Non-Toxic	Non-Toxic	Toxic	> 60	Toxic	Non-Toxic	–	–
CCN1CCN(C(=S)SCC(=O)Nc2ccc(S(N)(=O)=O)cc2)CC1	189	296	8.2	4.9	–	–	–	–	–	–	–	–
NS(=O)(=O)c1ccc(NC(=O)CSC(=S)N2CCCCC2)cc1	406	261	27.5	6	–	–	–	–	–	–	–	–
NS(=O)(=O)c1ccc(NC(=O)CSC(=S)N2CCN(c3ccc(F)c(Cl)c3)CC2)cc1	2440	276	2120	438	–	–	–	–	–	–	–	–
COc1ccc(N2CCN(C(=S)SCC(=O)Nc3ccc(S(N)(=O)=O)cc3)CC2)cc1	901	564	2080	298	–	–	–	–	–	–	–	–
NS(=O)(=O)c1ccc2nc(NC(=O)CSC(=S)N3CCOCC3)sc2c1	8120	26.8	8.8	27.9	–	–	–	–	–	–	–	–
COc1ccccc1N1CCN(C(=S)SCC(=O)Nc2ccc(S(N)(=O)=O)cc2)CC1	> 10000	32.2	36.6	611	Non-Toxic	Non-Toxic	Toxic	> 60	Toxic	Non-Toxic	Toxic	–
COc1ccc(N2CCN(C(=S)SCC(=O)Nc3nc4ccc(S(N)(=O)=O)cc4s3)CC2)cc1	> 10000	30.9	958	363	Non-Toxic	Non-Toxic	Toxic	> 60	Toxic	Non-Toxic	–	–
CC(=O)Nc1nnc(S(N)(=O)=O)s1 [ACETAZOLAMIDE]	–	–	–	–	Non-Toxic	Non-Toxic	Toxic	> 60	–	Non-Toxic	–	–
COc1cccc2c1C(=O)c1c(O)c3c(c(O)c1C2=O)C[C@@](O)(C(=O)CO)C[C@@H]3O[C@H]1C[C@H](N)[C@H](O)[C@H](C)O1 [DOXORUBICIN]	–	–	–	–	–	–	Toxic	–	Toxic	–	Toxic	Toxic
